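Cells were grown in 96-well plates and exposed to each compound for 48 hours at five concentrations; endpoints were interpolated linearly between bracketing concentrations, or set to the highest concentration if not reached. GI50 = concentration required for 50% inhibition of growth.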 Calls of active or inactive are those of the source. Rule as the data show it: active = GI50 up to about 1.1 µM and inactive = higher.
What was measured:
Assay in all cases: DTP human tumour cell line panel, 48 h
RPMI-8226 = test system: RPMI-8226
DU-145 = test system: DU-145
786-0 = test system: 786-0
SW-620 = test system: SW-620
UO-31 = test system: UO-31
UACC-62 = test system: UACC-62
HCT-116 = test system: HCT-116
HT-29 = test system: HT-29
LOX IMVI = test system: LOX IMVI
BT-549 = test system: BT-549
PC-3 = test system: PC-3
HOP-62 = test system: HOP-62
MCF7 = test system: MCF7
NCI-H23 = test system: NCI-H23
OVCAR-3 = test system: OVCAR-3
SK-MEL-28 = test system: SK-MEL-28
IGROV-1 = test system: IGROV-1
NCI-H460 = test system: NCI-H460
SF-295 = test system: SF-295
ACHN = test system: ACHN

Measured: GI50

CN(O)C(=O)c1cccc(Cl)c1
inactive: RPMI-8226 > 100 µM | DU-145 > 100 µM | 786-0 > 100 µM | SW-620 > 100 µM | UO-31 > 100 µM | UACC-62 > 100 µM | HCT-116 > 100 µM | HT-29 70.6 µM | LOX IMVI > 100 µM | BT-549 > 100 µM | PC-3 > 100 µM | HOP-62 > 100 µM | MCF7 > 100 µM | NCI-H23 > 100 µM | OVCAR-3 > 100 µM | SK-MEL-28 > 100 µM | IGROV-1 91.8 µM | NCI-H460 95.1 µM | SF-295 > 100 µM | ACHN > 100 µM

Cc1ccc(S(=O)(=O)c2ccsc2NC(=O)C(F)(F)F)cc1
inactive: RPMI-8226 8.02 µM | DU-145 42.6 µM | 786-0 37.6 µM | SW-620 57.3 µM | UO-31 28.9 µM | UACC-62 35.7 µM | HCT-116 28.6 µM | HT-29 35.8 µM | LOX IMVI 28.2 µM | BT-549 40.3 µM | PC-3 37.6 µM | HOP-62 34.7 µM | MCF7 44.8 µM | NCI-H23 34.5 µM | OVCAR-3 42.6 µM | SK-MEL-28 93.5 µM | IGROV-1 62.8 µM | NCI-H460 27.3 µM | SF-295 37.8 µM | ACHN 39.2 µM

O=C(N/N=C/c1ccc(Cl)cc1)c1ccccc1Nc1ccccc1C(=O)N/N=C/c1ccc(Cl)cc1
inactive: RPMI-8226 > 100 µM | DU-145 > 100 µM | 786-0 > 100 µM | SW-620 > 100 µM | UO-31 > 100 µM | UACC-62 > 100 µM | HCT-116 > 100 µM | HT-29 > 100 µM | LOX IMVI > 100 µM | BT-549 > 100 µM | PC-3 > 100 µM | HOP-62 > 100 µM | MCF7 > 100 µM | NCI-H23 > 100 µM | OVCAR-3 > 100 µM | SK-MEL-28 > 100 µM | IGROV-1 > 100 µM | NCI-H460 > 100 µM | SF-295 54 µM | ACHN > 100 µM

NCCNC(=O)CN(CC(=O)O)C1CCCCC1N(CC(=O)O)CC(=O)O (stereo not given)
inactive: RPMI-8226 > 10 µM | DU-145 > 100 µM | 786-0 > 100 µM | SW-620 > 100 µM | UO-31 > 100 µM | UACC-62 > 100 µM | HCT-116 > 100 µM | HT-29 > 100 µM | LOX IMVI > 100 µM | BT-549 > 100 µM | PC-3 > 100 µM | HOP-62 > 100 µM | MCF7 > 100 µM | NCI-H23 > 100 µM | OVCAR-3 > 100 µM | SK-MEL-28 > 100 µM | IGROV-1 > 100 µM | NCI-H460 > 100 µM | SF-295 > 100 µM | ACHN > 100 µM

O=C(CCc1ccccc1)ON1C(=S)NC(c2ccccc2)(c2ccccc2)C1=S
inactive: RPMI-8226 29.1 µM | DU-145 68.1 µM | 786-0 19.7 µM | SW-620 42.4 µM | UO-31 43.4 µM | UACC-62 33.9 µM | HCT-116 23.7 µM | HT-29 25.4 µM | LOX IMVI 21.1 µM | BT-549 37.8 µM | PC-3 23.4 µM | HOP-62 30.1 µM | MCF7 32.9 µM | NCI-H23 30.3 µM | OVCAR-3 29 µM | SK-MEL-28 > 100 µM | IGROV-1 25.9 µM | NCI-H460 31.6 µM | SF-295 42 µM | ACHN 44.9 µM

CCOC(=O)C1=CCOc2cc(N(C)C)ccc21
inactive: RPMI-8226 > 100 µM | DU-145 > 100 µM | 786-0 > 100 µM | SW-620 > 100 µM | UO-31 > 100 µM | UACC-62 > 100 µM | HCT-116 > 100 µM | HT-29 > 100 µM | LOX IMVI > 100 µM | BT-549 > 100 µM | PC-3 > 100 µM | HOP-62 > 100 µM | MCF7 > 100 µM | NCI-H23 > 100 µM | OVCAR-3 21.7 µM | SK-MEL-28 > 100 µM | IGROV-1 > 100 µM | NCI-H460 > 100 µM | SF-295 > 100 µM | ACHN > 100 µM

COc1cc2oc(=O)ccc2cc1C(=O)CC(C)C
inactive: RPMI-8226 > 100 µM | DU-145 > 100 µM | 786-0 > 100 µM | SW-620 > 100 µM | UO-31 > 100 µM | UACC-62 > 100 µM | HCT-116 > 100 µM | HT-29 > 100 µM | LOX IMVI > 100 µM | BT-549 71.4 µM | PC-3 > 100 µM | HOP-62 > 100 µM | MCF7 73.8 µM | NCI-H23 > 100 µM | OVCAR-3 > 100 µM | SK-MEL-28 > 100 µM | IGROV-1 > 100 µM | NCI-H460 62.5 µM | SF-295 > 100 µM | ACHN > 100 µM

COc1cc(NS(C)(=O)=O)ccc1NCc1c[nH]c2ccc3ncccc3c12
inactive: RPMI-8226 11.3 µM | DU-145 23.9 µM | 786-0 15.6 µM | SW-620 26.1 µM | UO-31 26.4 µM | UACC-62 17.3 µM | HCT-116 21.2 µM | HT-29 23.2 µM | LOX IMVI 25.2 µM | BT-549 18.9 µM | PC-3 19.4 µM | HOP-62 22.2 µM | MCF7 19.4 µM | NCI-H23 20.4 µM | OVCAR-3 23.2 µM | SK-MEL-28 23.1 µM | IGROV-1 37.1 µM | NCI-H460 18.2 µM | SF-295 18.5 µM | ACHN 21 µM

N#C/C(=C\c1ccc2ccccc2c1)C(=O)c1ccccc1
inactive: RPMI-8226 34.2 µM | DU-145 > 100 µM | 786-0 > 61.8 µM | SW-620 42.4 µM | UO-31 > 86.7 µM | UACC-62 > 57 µM | HCT-116 > 61.4 µM | HT-29 > 67.3 µM | LOX IMVI 26.1 µM | BT-549 52.2 µM | PC-3 51.5 µM | HOP-62 20.8 µM | MCF7 > 100 µM | NCI-H23 > 57.4 µM | OVCAR-3 > 65.2 µM | SK-MEL-28 > 47 µM | IGROV-1 > 100 µM | NCI-H460 > 94.6 µM | SF-295 > 54.6 µM | ACHN > 100 µM

Clc1ccc(Cn2cc(/C=N/n3cnnc3)c3ccccc32)cc1
inactive: RPMI-8226 28.1 µM | DU-145 > 100 µM | 786-0 57.9 µM | SW-620 > 100 µM | UO-31 30.5 µM | UACC-62 29 µM | HCT-116 31.8 µM | HT-29 > 100 µM | LOX IMVI 54.6 µM | BT-549 29.3 µM | PC-3 52.1 µM | HOP-62 74.3 µM | MCF7 28.4 µM | NCI-H23 29.3 µM | OVCAR-3 86.5 µM | SK-MEL-28 > 100 µM | IGROV-1 24.1 µM | NCI-H460 11.1 µM | SF-295 33.3 µM | ACHN 51.1 µM

Reference: ChEMBL document CHEMBL1201862, “PubChem BioAssay data set” (2004)
